Results from US9375493B2, “Bacterial imaging agents and methods of using same” (VisEn Medical, Inc., priority 2012, dated 2016).

How the values were obtained:
[1] = test system: Escherichia coli; test: In vitro binding of bacterium targeting agent to bacteria, flow cytometry; assay type: cell-based; conditions: 10 μM final in TES buffer, RT, 1 hour; FIG. 1A/1B
Experimental: (§1) Bacteria were grown at 37° C. to an OD600=0.3-0.5 and centrifuged at 3500 rpm for 4 minutes before the subsequent pellets were re-suspended in TES buffer. Bacteria with or without targeting agent were grown under the same conditions. Bacterial targeting agents, compound A7, were incubated with bacterial pellets at a concentration of 10 μM final in TES buffer at RT for 1 hour. […] In this experiment, fluorescence is only associated with bacteria in the presence of the bacterium targeting agent described herein.

[2] = test system: Staphylococcus epidermidis; test: as above; assay type: cell-based; conditions: 10 μM final in TES buffer, RT, 1 hour; FIG. 1A/1B
Experimental: as §1

[3] = test system: Staphylococcus epidermidis; test: In vivo imaging of Staphylococcus epidermidis thigh infection (FMT2500); parameters: species or system SKH1-E female mice; conditions: 10^8 CFUs i.m. left thigh; 5 nM agent i.v. about 24 hours after inoculation; imaged one, two and three hours after agent injection; all time points
Experimental: SKH1-E female mice, aged 6-8 weeks, were injected intramuscularly with 10^8 CFUs (colony forming units) of Staphylococcus epidermidis in the left thigh. Mice were given intravenous injections of 5 nM of bacterium targeting agent, compound A7, approximately 24 hours after the initial bacterial inoculation.

[4] = test system: Escherichia coli; test: In vivo imaging of Escherichia coli thigh infection (FMT2500); parameters: species or system SKH1-E female mice; conditions: 10^5-10^8 CFUs i.m. left thigh; 5 nM agent i.v. about 24 hours after inoculation; imaged one hour after agent injection
Experimental: SKH1-E female mice, aged 6-8 weeks, were injected intramuscularly in the left thigh with different concentrations of Escherichia coli at 10^5-10^8 CFUs. At approximately 24 hours after the initial bacterial inoculation, mice were given intravenous injections of 5 nM of bacterium targeting agent, compound A7.

## CN1/C(=C/C=C(/C=C/C2=[N+](CCCS(=O)(=O)O)c3ccccc3C2(C)C)c2ccc(C(=O)NCCCCCC(=O)NCC(=O)Nc3ccc(CC[N+]45CC[N+](C)(CC4)CC5)cc3)cn2)C(C)(C)c2ccccc21 [Compound A7, 3-(3,3-dimethyl-2-((1E,3Z,5E)-3-(5-((6-((2-((4-(2-(4-methyl-1,4-diazabicyclo[2.2.2]octan-1,4-diium-1-yl)ethyl)phenyl)amino)-2-oxoethyl)amino)-6-oxohexyl)carbamoyl)pyridin-2-yl)-5-(1,3,3-trimethylindolin-2-ylidene)penta-1,3-dien-1-yl)-3H-indol-1-ium-1-yl)propane-1-sulfonate di-acetate]
[1]
  in vitro binding to bacteria (fluorescence by flow cytometry): in vitro binding
[2]
  in vitro binding to bacteria (fluorescence by flow cytometry): in vitro binding
[3]
  differentiation between infected and uninfected areas (fluorescence, tomographic imaging): Statistically significant differentiation between infected and uninfected areas
[4]
  uptake of the agent at the site of infection (tomographic images): clear uptake of the bacterial targeting agent at the site of the infection
